# From patent publication US11608341B2, “Substituted tetrahydropyrazolo[3,4-d]pyrimidines and tetrahydropyrazolo[4,3-d]pyrimidines as C5A receptor modulators” (Idorsia Pharmaceuticals Ltd., priority 2018, dated 2023)
# Molecular target: T1, C5AR1 (Homo sapiens, UniProt P21730)
# T1 construct: host or cells: CHO-K1
# T1 sequence (P21730 1-350): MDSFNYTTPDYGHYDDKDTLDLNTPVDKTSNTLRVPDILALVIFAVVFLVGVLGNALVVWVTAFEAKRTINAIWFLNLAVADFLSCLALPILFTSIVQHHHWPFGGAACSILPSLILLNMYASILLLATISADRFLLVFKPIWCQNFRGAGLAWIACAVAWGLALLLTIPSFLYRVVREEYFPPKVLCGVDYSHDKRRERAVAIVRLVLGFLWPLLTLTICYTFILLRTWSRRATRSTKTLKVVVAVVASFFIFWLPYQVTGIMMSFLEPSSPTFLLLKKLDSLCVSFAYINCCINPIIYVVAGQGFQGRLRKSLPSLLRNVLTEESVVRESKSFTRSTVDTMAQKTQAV
# Assay: In vitro assay: antagonism of C5a-induced beta-arrestin recruitment (PathHunter) in CHO-K1 C5AR1 beta-arrestin cell line
# Format: cell-based
# Details: antagonistic activity, 1-10 nM C5a agonist, geometric mean where several measurements, read-out: C5aR IC50
# Experimental: 5 μl Antagonist at 6-fold end concentration or DMSO control is added to assay medium and subsequently 5 μl 1-10 nM C5a agonist at 6 fold end concentration. Cells are centrifuged for 1 min at 1000 rpm and incubated for 1.5 hour in at 37° C. Plates are equilibrated at room temperature for several minutes before adding 12 μl/well Detection Reagent (PathHunter Detection Kit, DiscoverX, Cat #93-0001). Plates are centrifuged for 1 min at 1000 rpm and incubated for 45 minutes at RT before being measured on a Fluostar Optima, BMG Labtech. IC50 values are calculated from a serial dilution range of antagonist using inhouse software and given in nmol/l.
# The calculated IC50 values may fluctuate depending on the daily cellular assay performance. Fluctuations of this kind are known to those skilled in the art. Average IC50 values from several measurements are given as geometric mean values.
row,SMILES,IC50 [nM]
1,"COc1nccc(C(F)F)c1N1CCC(N2C(=O)N(Cc3ccccc3C3CC3)c3n[nH]cc3C2C)CC1 (single isomer, unassigned) [Example 370]",19
2,"CC1c2c[nH]nc2N(Cc2ccccc2C2CC2)C(=O)N1C1CCN(c2c(F)cccc2Cl)CC1 (single isomer, unassigned) [Example 372]",11
3,"COc1nccc(C(F)(F)F)c1N1CCC(N2C(=O)N(Cc3ccccc3C3CC3)c3nn(C)cc3C2C)CC1 (single isomer, unassigned) [Example 375]",146
4,"COc1nccc(Cl)c1N1CCC(N2C(=O)N(Cc3ccccc3C(F)(F)F)c3nn(C)cc3C2C)CC1 (single isomer, unassigned) [Example 376]",5
5,"COc1nccc(Cl)c1N1CCC(N2C(=O)N(Cc3ccccc3C3CC3)c3nn(C)cc3C2C)CC1 (single isomer, unassigned) [Example 378]",6
6,"COc1nccc(Cl)c1N1CCC(N2C(=O)N(Cc3ccccc3C3CC3)c3nn(C)cc3C2C)CC1 (single isomer, unassigned) [Example 379]",412
7,Cc1cccc(F)c1N1CCC(N2Cc3c(ncn3C)N(Cc3ccccc3C(F)(F)F)C2=O)CC1 [Example 16],74
8,COC(=O)Cn1cc2c(n1)N(Cc1ccccc1C(F)(F)F)C(=O)N(C1CCN(c3c(C)cccc3F)CC1)C2 [Example 17],13
9,Cc1cccc(F)c1N1CCC(N2Cc3cn(C)nc3N(Cc3ncccc3C(F)(F)F)C2=O)CC1 [Example 22],10
10,Cc1cccc(F)c1N1CCC(N2Cc3cn(CC(C)(C)O)nc3N(Cc3ccccc3C(F)(F)F)C2=O)CC1 [Example 25],18
11,CCOC(Cn1cc2c(n1)N(Cc1ccccc1C(F)(F)F)C(=O)N(C1CCN(c3c(C)cccc3F)CC1)C2)OCC [Example 28],83
12,Cc1cccc(F)c1N1CCC(N2Cc3cn(CC(N)=O)nc3N(Cc3ccccc3C(F)(F)F)C2=O)CC1 [Example 29],103
13,Cc1cccc(F)c1N1CCC(N2Cc3cn(CC(=O)N(C)C)nc3N(Cc3ccccc3C(F)(F)F)C2=O)CC1 [Example 30],95
14,COC(=O)C(C)Cn1cc2c(n1)N(Cc1ccccc1C(F)(F)F)C(=O)N(C1CCN(c3c(C)cccc3F)CC1)C2 (centres unmarked) [Example 31],13
15,COC1CN(CCn2cc3c(n2)N(Cc2ccccc2C(F)(F)F)C(=O)N(C2CCN(c4c(C)cccc4F)CC2)C3)C1 [Example 34],22
16,Cc1cccc(F)c1N1CCC(N2Cc3cn(C)nc3N(Cc3nc(Cl)ccc3C(F)(F)F)C2=O)CC1 [Example 35],9
17,Cc1cccc(F)c1N1CCC(N2Cc3cn(CC(C)CO)nc3N(Cc3ccccc3C(F)(F)F)C2=O)CC1 (centres unmarked) [Example 39],16
18,Cc1cccc(F)c1N1CCC(N2Cc3cn(CC(O)CO)nc3N(Cc3ccccc3C(F)(F)F)C2=O)CC1 (centres unmarked) [Example 40],27
19,COC(=O)C(Cl)Cn1cc2c(n1)N(Cc1ccccc1C(F)(F)F)C(=O)N(C1CCN(c3c(C)cccc3F)CC1)C2 (centres unmarked) [Example 42],24
20,Cc1cccc(F)c1N1CCC(N2Cc3cn(CC(C)C#N)nc3N(Cc3ccccc3C(F)(F)F)C2=O)CC1 (centres unmarked) [Example 43],18
21,Cc1cccc(F)c1N1CCC(N2Cc3cn(C)nc3N(Cc3ccccc3C(F)(F)F)C2=O)C1 (centres unmarked) [Example 44],35
22,Cc1ccnc(F)c1N1CCC(N2Cc3cn(C)nc3N(Cc3ccccc3C(F)(F)F)C2=O)CC1 [Example 52],72
23,COC(=O)C(Cn1cc2c(n1)N(Cc1ccccc1C(F)(F)F)C(=O)N(C1CCN(c3c(C)cccc3F)CC1)C2)N(C)C (centres unmarked) [Example 53],46
24,Cc1cccc(F)c1N1CCC(N2Cc3cn(CC(CO)N(C)C)nc3N(Cc3ccccc3C(F)(F)F)C2=O)CC1 (centres unmarked) [Example 56],91
25,CNCCn1cc2c(n1)N(Cc1ccccc1C(F)(F)F)C(=O)N(C1CCN(c3c(C)cccc3F)CC1)C2 [Example 59],196
26,Cc1cccc(F)c1N1CCC(N2Cc3cn(CCN(C)C)nc3N(Cc3ccccc3C(F)(F)F)C2=O)CC1 [Example 60],56

# Second part, the compound after the results:
row,IC50 [nM],SMILES
1,1330,"COc1nccc(C(F)F)c1N1CCC(N2C(=O)N(Cc3ccccc3C3CC3)c3n[nH]cc3C2C)CC1 (single isomer, unassigned) [Example 371]"
2,1010,"CC1c2c[nH]nc2N(Cc2ccccc2C2CC2)C(=O)N1C1CCN(c2c(F)cccc2Cl)CC1 (single isomer, unassigned) [Example 373]"
3,8,"COc1nccc(C(F)(F)F)c1N1CCC(N2C(=O)N(Cc3ccccc3C3CC3)c3nn(C)cc3C2C)CC1 (single isomer, unassigned) [Example 374]"
4,552,"COc1nccc(Cl)c1N1CCC(N2C(=O)N(Cc3ccccc3C(F)(F)F)c3nn(C)cc3C2C)CC1 (single isomer, unassigned) [Example 377]"
5,21,"COc1nccc(C)c1N1CCC(N2C(=O)N(Cc3ccccc3C3CC3)c3nn(C4CC4)cc3C2C)CC1 (single isomer, unassigned) [Example 380]"
6,190,"COc1nccc(C)c1N1CCC(N2C(=O)N(Cc3ccccc3C3CC3)c3nn(C4CC4)cc3C2C)CC1 (single isomer, unassigned) [Example 381]"
7,21,"COc1nccc(C(F)F)c1N1CCC(N2C(=O)N(Cc3ccccc3C3CC3)c3nn(C4CC4)cc3C2C)CC1 (single isomer, unassigned) [Example 382]"
8,204,"COc1nccc(C(F)F)c1N1CCC(N2C(=O)N(Cc3ccccc3C3CC3)c3nn(C4CC4)cc3C2C)CC1 (single isomer, unassigned) [Example 383]"
9,12,"CC1c2cn(C)nc2N(Cc2ccccc2C2CC2)C(=O)N1C1CCN(c2c(F)cccc2Br)CC1 (single isomer, unassigned) [Example 384]"
10,491,"CC1c2cn(C)nc2N(Cc2ccccc2C2CC2)C(=O)N1C1CCN(c2c(F)cccc2Br)CC1 (single isomer, unassigned) [Example 385]"
11,45,Cc1cccc(F)c1N1CCC(N2Cc3nn(C)cc3N(Cc3ncccc3C(F)(F)F)C2=O)CC1 [Example 15]
12,132,COC(=O)Cn1cc2c(n1)CN(C1CCN(c3c(C)cccc3F)CC1)C(=O)N2Cc1ccccc1C(F)(F)F [Example 18]
13,637,COC(=O)Cn1ncc2c1CN(C1CCN(c3c(C)cccc3F)CC1)C(=O)N2Cc1ccccc1C(F)(F)F [Example 19]
14,12,Cc1cccc(F)c1N1CCC(N2Cc3cn(CCO)nc3N(Cc3ccccc3C(F)(F)F)C2=O)CC1 [Example 20]
15,13,Cc1cccc(F)c1N1CCC(N2Cc3cn(C)nc3N(Cc3ccccc3OC3CC3)C2=O)CC1 [Example 21]
16,15,Cc1cccc(F)c1N1CCC(N2Cc3cn(CC#N)nc3N(Cc3ccccc3C(F)(F)F)C2=O)CC1 [Example 24]
17,173,Cc1cccc(F)c1N1CCC(N2Cc3cn(CCN)nc3N(Cc3ccccc3C(F)(F)F)C2=O)CC1 [Example 26]

row,IC50 [nM],SMILES
1,17,COC(=O)C(C)(C)n1cc2c(n1)N(Cc1ccccc1C(F)(F)F)C(=O)N(C1CCN(c3c(C)cccc3F)CC1)C2 [Example 27]
2,14,Cc1cccc(F)c1N1CCC(N2Cc3cn(C(C)(C)CO)nc3N(Cc3ccccc3C(F)(F)F)C2=O)CC1 [Example 32]
3,12,Cc1cccc(F)c1N1CCC(N2Cc3cn(CC(C)O)nc3N(Cc3ccccc3C(F)(F)F)C2=O)CC1 (centres unmarked) [Example 33]
4,7,Cc1cccc(F)c1N1CCC(N2Cc3cn(C)nc3N(Cc3nc(F)ccc3C(F)(F)F)C2=O)CC1 [Example 36]
5,53,Cc1ccc(C(F)(F)F)c(CN2C(=O)N(C3CCN(c4c(C)cccc4F)CC3)Cc3cn(C)nc32)n1 [Example 37]
6,12,COc1ccc(C(F)(F)F)c(CN2C(=O)N(C3CCN(c4c(C)cccc4F)CC3)Cc3cn(C)nc32)n1 [Example 38]
7,17,COC[C@H](O)Cn1cc2c(n1)N(Cc1ccccc1C(F)(F)F)C(=O)N(C1CCN(c3c(C)cccc3F)CC1)C2 [Example 41]
8,203,Cc1cccc(F)c1N1CCC(N2Cc3cn(CC(C)CN)nc3N(Cc3ccccc3C(F)(F)F)C2=O)CC1 (centres unmarked) [Example 45]
9,21,COC[C@@H](O)Cn1cc2c(n1)N(Cc1ccccc1C(F)(F)F)C(=O)N(C1CCN(c3c(C)cccc3F)CC1)C2 [Example 46]
10,19,Cc1cccc(C)c1N1CCC(N2Cc3cn(C)nc3N(Cc3ccccc3C(F)(F)F)C2=O)CC1 [Example 47]
11,18,COc1cccc(C)c1N1CCC(N2Cc3cn(C)nc3N(Cc3ccccc3C(F)(F)F)C2=O)CC1 [Example 48]
12,12,Cn1cc2c(n1)N(Cc1ccccc1C(F)(F)F)C(=O)N(C1CCN(c3c(F)cccc3C#N)CC1)C2 [Example 49]
13,85,Cc1cccc(F)c1N1CCC(N2Cc3cn(C)nc3N(Cc3nc(N(C)C)ccc3C(F)(F)F)C2=O)CC1 [Example 50]
14,46,CNc1ccc(C(F)(F)F)c(CN2C(=O)N(C3CCN(c4c(C)cccc4F)CC3)Cc3cn(C)nc32)n1 [Example 51]
15,14,COc1nccc(C)c1N1CCC(N2Cc3cn(C)nc3N(Cc3ccccc3C(F)(F)F)C2=O)CC1 [Example 54]
16,11,Cc1cccc(F)c1N1CC[C@@H](N2Cc3cn(C)nc3N(Cc3ccccc3C(F)(F)F)C2=O)C1 [Example 55]
